{"source": "patent US7550625B2", "about": "“Esters of florfenicol” (priority 2007, dated 2009)", "key": {"[1]": {"assay": "Serum concentration of florfenicol after subcutaneous injection to an animal", "assay_type": "in vivo", "text": "A lower Cmax advantageously avoids undesirable side-effects."}, "[2]": {"details": "added to serum in vitro; compared with florfenicol butyrate"}, "various bacteria": {"system": "various bacteria", "details": "cited from earlier work"}, "[3]": {"system": "variety of microorganisms", "details": "cited from earlier work"}}}
{"smiles": "COCCOCC(=O)O[C@H](c1ccc(S(C)(=O)=O)cc1)[C@@H](CF)NC(=O)C(Cl)Cl", "note": "[formula (Ia)]", "values": [{"measurement": "Cmax for the serum concentration of florfenicol", "setting": "[1]; administered to an animal, compared with florfenicol", "result": "lower than the Cmax for the serum concentration of florfenicol when florfenicol is administered"}, {"measurement": "time period for which serum concentration of florfenicol is therapeutically effective", "setting": "[1]; subcutaneous injection, compared with florfenicol or florfenicol butyrate", "result": "longer"}, {"measurement": "rate of hydrolysis in serum", "setting": "[2]", "result": "hydrolyzed faster than florfenicol butyrate"}]}
{"smiles": "CS(=O)(=O)c1ccc([C@@H](O)[C@@H](CF)NC(=O)C(Cl)Cl)cc1", "note": "[florfenicol]", "values": [{"measurement": "typical minimum inhibitory concentrations (MICs)", "setting": "various bacteria", "result": "0.3 to 1", "unit": "µg/mL"}, {"measurement": "activity against microorganisms", "setting": "[3]; Citrobacter, Proteus mirabilis, Proteus sp., Shigella, Salmonella, Providencia, Bacteroides, Staphylococcos aureus, Enterococci, Pasteurlla haemolytica, Pasteurella multocida, Haemophilus somnus, Haemophilus influenza", "result": "active"}, {"measurement": "resistance of microorganisms to the substance", "setting": "[3]; Serratia marcescens, Pseudomonas aeruginosa, Acinetobacter", "result": "resistant"}]}
{"smiles": "CN(C)CC(=O)OC(c1ccc(S(C)(=O)=O)cc1)C(CF)NC(=O)C(Cl)Cl", "note": "(stereo not shown) [formula (Ib)]", "values": [{"measurement": "pharmacokinetic and pharmacodynamic profile", "setting": "[1]; when administered to an animal, expected, compared with florfenicol and other florfenicol esters", "result": "superior pharmacokinetic and pharmacodynamic profile"}]}
